# According to ChEMBL document CHEMBL1201862, “PubChem BioAssay data set” (2004):
# The source made the active and inactive calls.
# What was measured:
# [1] = viability of HCT116 lacking mutant beta-catenin – cell-based, human colon tumor, dose response (AID 1045); format: functional;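 also: HCT116 colon tumor cells with beta catenin knocked out; cells exposed to compound for 60 hours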
# [2] = NIH3T3 cell viability loss – ATP luminescence, mouse fibroblasts, counter-screen, dose response (AID 2010); format: functional, cell-based;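 also: cells exposed to compound for about 90 hours before reading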
# [3] = Trypanosoma cruzi growth suppression in host cells – NIH3T3 host cells, beta-gal luminescence, confirmation (AID 2044); format: functional, cell-based;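 also: intracellular parasites grown in NIH/3T3 mouse fibroblasts as host cells; luminescent beta-galactosidase reporter signal from transgenic T. cruzi replicating inside host cells; inhibitors lower the luminescence signal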
# [4] = viability of PTEN-deleted HCT116 cells – cell-based, HCT116 PTEN knockout, dose response (AID 1047); format: functional;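 also: HCT116 colon tumor cells with PTEN knocked out; cells exposed to compound for 60 hours before readout; potency for loss of cell viability measured by luminescence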
# INS1 = test: INS-1E survival protection against cytokine death – cell-based, luminescence, retest, dose response (AID 449756); format: functional; settings: Rattus norvegicus;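 also: cell death triggered by IL-1 beta plus TNF-alpha plus IFN-gamma mixture; protective hits raise ATP signal compared with cytokine alone wells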
# [5] = Luminescence Cell-Based Dose Confirmation HTS to Identify Inhibitors of Platelet Dense Granule Release. [Related pubchem assays: 1663 (Primary HTS), 1678 (Summary of Project)]; format: functional
# [6] = target: Luciferin 4-monooxygenase (Photinus pyralis, UniProt P08659); test: inhibition of purified Photinus pyralis luciferase – biochemical, luminescence, dose response (AID 1891)
# Cytochrome P450 3A4 = Cytochrome P450 3A4 (Homo sapiens, UniProt P08684);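 also: CYP3A4 tested as one member of a cytochrome P450 panel screen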
# Cytochrome P450 2C19 = Cytochrome P450 2C19 (Homo sapiens, UniProt P33261); test: Cytochrome panel assay with activity outcomes. Panel member name: p450-cyp2c19 Compounds with AC50 equal or less than 10 uM are considered active; format: functional
# [7] = Luminescence Cell-Based Dose Retest to Confirm Inhibitors of Cancer Stem Cells. [Related pubchem assays (depositor defined):AID2717, AID2721]; format: functional, Homo sapiens; settings: Homo sapiens
# Streptokinase A = target: T1, Streptokinase A (Streptococcus pyogenes serotype M1, UniProt P10520); test: viability-normalized secreted streptokinase activity reduction – plasminogen activation absorbance, OD405, dose response (AID 1914); format: functional, Streptococcus pyogenes M1 GAS;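 also: secreted streptokinase activity via plasminogen activation per viability signal from cell pellet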
# T1 sequence (P10520 whole entry): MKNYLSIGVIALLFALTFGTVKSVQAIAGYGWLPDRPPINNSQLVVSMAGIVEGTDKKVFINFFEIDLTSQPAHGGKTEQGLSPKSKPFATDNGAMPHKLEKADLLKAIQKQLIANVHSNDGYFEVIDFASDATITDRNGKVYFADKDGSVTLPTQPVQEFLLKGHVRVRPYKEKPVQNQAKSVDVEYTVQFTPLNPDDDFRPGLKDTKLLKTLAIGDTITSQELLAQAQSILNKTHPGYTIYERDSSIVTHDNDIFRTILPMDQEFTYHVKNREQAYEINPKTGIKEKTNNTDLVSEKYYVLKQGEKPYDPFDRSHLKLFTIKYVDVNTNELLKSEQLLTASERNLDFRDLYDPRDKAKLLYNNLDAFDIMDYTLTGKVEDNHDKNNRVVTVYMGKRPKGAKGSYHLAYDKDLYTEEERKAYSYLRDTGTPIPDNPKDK
# Streptococcus = test: GAS UMAA2166 growth inhibition – luminescence, BacTiterGlo, counter-screen for streptokinase expression inhibitor project, dose response (AID 1915); format: functional, organism-based;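 also: potency for reduction of bacterial viability or growth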
# [8] = tested on: Streptococcus sp. 'group A'; test: Streptococcus pyogenes SK(-)GAS viability under kanamycin – luminescence, BacTiterGlo, confirmation, counter-screen for streptokinase expression inhibitor project, dose response (AID 1900); format: functional, organism-based
# [9] = viability of uninfected HEp-2 cells – cell-based, HTS, cytotoxicity control for RSV inhibitor project, dose response (AID 2410); format: functional; settings: human respiratory syncytial virus
# Chain of Luciferin 4-monooxygenase (P08659 whole entry): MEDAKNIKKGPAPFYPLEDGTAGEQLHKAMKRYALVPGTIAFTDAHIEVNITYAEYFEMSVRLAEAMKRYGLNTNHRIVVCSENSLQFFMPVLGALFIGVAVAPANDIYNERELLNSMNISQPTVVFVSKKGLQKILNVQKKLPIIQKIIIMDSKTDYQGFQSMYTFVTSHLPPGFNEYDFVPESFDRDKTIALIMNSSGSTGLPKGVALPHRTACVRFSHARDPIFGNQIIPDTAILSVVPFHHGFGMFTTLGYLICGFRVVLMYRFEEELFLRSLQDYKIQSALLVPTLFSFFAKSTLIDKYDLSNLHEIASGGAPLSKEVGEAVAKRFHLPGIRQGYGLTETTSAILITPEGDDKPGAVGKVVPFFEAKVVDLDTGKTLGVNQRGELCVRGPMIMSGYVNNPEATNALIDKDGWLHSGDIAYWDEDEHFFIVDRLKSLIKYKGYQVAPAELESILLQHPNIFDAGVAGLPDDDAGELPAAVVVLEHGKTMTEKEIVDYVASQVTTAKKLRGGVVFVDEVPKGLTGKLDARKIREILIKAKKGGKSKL
# Chain of Cytochrome P450 3A4 (P08684 whole entry): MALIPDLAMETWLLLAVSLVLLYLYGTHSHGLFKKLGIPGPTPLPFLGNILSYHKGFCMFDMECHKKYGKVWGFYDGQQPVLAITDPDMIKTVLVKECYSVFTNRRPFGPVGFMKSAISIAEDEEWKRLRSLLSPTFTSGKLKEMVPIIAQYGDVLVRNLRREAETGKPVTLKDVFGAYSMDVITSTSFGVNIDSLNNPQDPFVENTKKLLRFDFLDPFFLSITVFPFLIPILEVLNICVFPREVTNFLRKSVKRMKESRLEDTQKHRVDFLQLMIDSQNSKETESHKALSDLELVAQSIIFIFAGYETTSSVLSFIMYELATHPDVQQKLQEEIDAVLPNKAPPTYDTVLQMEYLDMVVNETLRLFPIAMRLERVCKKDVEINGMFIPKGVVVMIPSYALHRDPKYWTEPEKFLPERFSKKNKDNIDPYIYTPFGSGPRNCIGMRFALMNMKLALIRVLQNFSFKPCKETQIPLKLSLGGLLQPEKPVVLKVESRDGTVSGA
# Chain of Cytochrome P450 2C19 (P33261 whole entry): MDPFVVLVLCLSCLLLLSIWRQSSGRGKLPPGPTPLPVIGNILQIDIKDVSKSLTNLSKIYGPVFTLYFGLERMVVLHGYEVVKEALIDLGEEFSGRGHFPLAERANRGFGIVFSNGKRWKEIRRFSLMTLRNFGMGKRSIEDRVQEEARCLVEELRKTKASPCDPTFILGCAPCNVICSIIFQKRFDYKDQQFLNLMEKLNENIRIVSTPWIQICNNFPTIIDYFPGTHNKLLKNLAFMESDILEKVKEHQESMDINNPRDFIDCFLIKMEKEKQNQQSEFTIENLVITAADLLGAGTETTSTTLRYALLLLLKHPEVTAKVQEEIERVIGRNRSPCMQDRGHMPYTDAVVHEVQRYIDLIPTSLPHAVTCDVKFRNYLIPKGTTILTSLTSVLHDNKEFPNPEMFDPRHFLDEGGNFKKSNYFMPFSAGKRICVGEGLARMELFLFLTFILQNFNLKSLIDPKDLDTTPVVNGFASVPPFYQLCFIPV
smiles,measurement,setting,value
CC(Nc1nc(N2CCCC2)nc2ccccc12)c1ccccc1 (configuration not stated),EC50,[1],4.31 µM (active)
same,EC50,[2],55.9 µM (active)
same,EC50,[3],568 nM (active)
same,EC50,[4],5.65 µM (active)
NC(=O)c1c(NC(=O)c2ccc(S(=O)(=O)N(CCCl)CCCl)cc2)sc2c1CCCCC2,EC50,[1],20.5 µM (active)
same,EC50,[4],15 µM (active)
COc1ccc(/C(C)=N/Nc2nc(C)cc(-c3ccccc3)n2)cc1,AC50,INS1,0.703 µM (active)
COc1ccccc1C(=O)COC(=O)/C=C/c1ccccc1,EC50,[5],> 112 µM (not active)
same,EC50,[6],> 112 µM (not active)
CC(C)c1cccc2nc3c(c(C(C)(C)C)c12)Cn1c-3cccc1=O,AC50,Cytochrome P450 3A4,5.01 µM (inconclusive)
same,AC50,Cytochrome P450 2C19; read-out: AC50,25.1 µM (inconclusive)
CC[C@]1(c2ccccc2OC)ON(c2ccccc2C(F)(F)F)C1=O,AC50,INS1,1.75 µM (active)
Cc1cc(C(C)(C)C)c(OCCCN2CCOCC2)c(C(C)(C)C)c1,AC50,Cytochrome P450 3A4,3.16 µM (inconclusive)
COc1c(/C=N/Nc2nc(N3CCCCC3)nc(N3CCCCC3)n2)cccc1[N+](=O)[O-],AC50,Cytochrome P450 2C19; read-out: AC50,7.94 µM (inconclusive)
COc1cc(C2c3c(-c4cc(Cl)c(C)cc4O)n[nH]c3C(=O)N2Cc2cccnc2)ccc1O (configuration not stated),EC50,[5],85 µM (active)
same,EC50,[6],> 112 µM (not active)
COc1cc(NC(=S)N2CCN(C/C=C/c3ccccc3)CC2)cc(OC)c1,EC50,[5],> 112 µM (not active)
same,EC50,[6],> 112 µM (not active)
C=CCNC(=O)/C(C#N)=C/c1c(N(Cc2ccccc2)Cc2ccccc2)nc2ccccn2c1=O,EC50,[1],25.3 µM (active)
same,EC50,[4],26 µM (active)
CN(C)CCNc1ccccn1,AC50,Cytochrome P450 2C19,inconclusive
COCCNC(=O)c1cn(Cc2c(F)cccc2Cl)nn1,EC50,[5],> 112 µM (not active)
same,EC50,[6],> 112 µM (not active)
O=[N+]([O-])c1cccc(/C=C/c2nc(/C=N/c3ccc4ccccc4c3)c(O)o2)c1,EC50,[1],18 µM (active)
same,EC50,[4],12.8 µM (active)
Fc1ccc2nc(Nc3nc4c(F)cc(F)cc4s3)sc2c1,AC50,INS1,7.02 µM (active)
Cc1ccc2c(c1)C1CCCC3C1N2CC(=O)N3Cc1ccccc1 (configuration not stated),EC50,[1],62.7 µM (active)
same,EC50,[4],33.9 µM (active)
CCN(CC)c1ccc(C(=O)N/N=C/c2ccccc2OC(F)F)cc1,AC50,INS1,5.97 µM (active)
O=C(/C=C/c1ccc(-c2ccccc2)cc1)NCc1cccnc1,AC50,INS1,7.49 µM (active)
CCOC(=O)C1=C(c2ccccc2)N=c2s/c(=C\c3cccc(O)c3)c(=O)n2C1c1cccs1 (configuration not stated),EC50,[1],15.1 µM (active)
same,AC50,[7],2.94 µM (active)
same,EC50,[4],15 µM (active)
Oc1nc2cc(NC(S)=Nc3ccccc3Cl)ccc2[nH]1,EC50,[5],> 112 µM (not active)
Cc1c(C(=O)Nc2ccc(-c3nnc4n3CCCCC4)cc2)oc2c1ccc1ccccc12,EC50,[1],20.9 µM (active)
same,AC50,[7],2.48 µM (active)
same,EC50,[2],> 60 µM (not active)
same,EC50,[3],1450 nM (active)
same,EC50,[4],19.8 µM (active)
COCCn1c(N)c(C(=O)Nc2sc3c(c2C(=O)OC)CCCC3)c2nc3ccccc3nc21,EC50,Streptokinase A,> 150 µM (not active)
same,EC50,Streptococcus,82.4 µM (active)
same,EC50,[8],1.83 µM (active)
same,CC50,[9],> 50 µM (active)
COC(=O)c1ccc2c(=O)n(-c3ccccc3)c(SCN3C(=O)c4ccccc4C3=O)nc2c1,AC50,INS1,6.09 µM (active)
Cc1nc2ccccc2n1CC(=O)N/N=C\c1ccccn1,AC50,Cytochrome P450 2C19,inconclusive
COc1ccc(OC)c2sc(NC(=O)CCS(=O)(=O)c3ccccc3)nc12,EC50,[1],62 µM (active)
same,EC50,[4],81.3 µM (active)
CCCNC(=O)OC[C@@H]1O[C@H](CCON=C(C)C)C=C[C@@H]1Oc1ccc(OC)cc1,AC50,Cytochrome P450 3A4,3.98 µM (inconclusive)
CCc1ccc2c(c1)C1(NN=C(c3ccc(C)cc3)S1)C(=O)N2 (configuration not stated),EC50,[1],2.81 µM (active)
same,EC50,[4],4.58 µM (active)
O=C1COc2ccc(C(=O)COC(=O)c3cc(S(=O)(=O)N4CCOCC4)ccc3F)cc2N1,EC50,[5],22.9 µM (active)
same,EC50,[6],> 112 µM (not active)
Nc1c(C(=O)NCCN2CCOCC2)c2nc3ccccc3nc2n1CCc1ccccc1,EC50,[1],17.9 µM (active)
same,EC50,[4],15.4 µM (active)
Cc1ccc(NS(=O)(=O)c2cccc(C(=O)N3CCCCCCC3)c2)cc1,EC50,[5],> 112 µM (not active)
same,EC50,[6],> 112 µM (not active)
CCOC(=O)C1=NN(C(=O)Nc2ccc(OC)cc2)C2C(=O)N(c3cccc(C(F)(F)F)c3)C(=O)C12 (configuration not stated),EC50,[5],27.2 µM (active)
same,EC50,[6],> 112 µM (not active)
COC(=O)c1cc(=O)n(Cc2ccco2)/c(=N/c2ccc(F)c(Cl)c2)s1,EC50,[1],7.55 µM (active)
same,EC50,[4],8.9 µM (active)
C=CCNC(=O)c1ccc2nc(-c3ccccc3)c(-c3ccccc3)nc2c1,AC50,Cytochrome P450 2C19; read-out: AC50,39.8 µM (inconclusive)
OC(COc1cccc2ccccc12)CN1CCN(c2ccc(Cl)cc2)CC1 (configuration not stated),EC50,Streptokinase A,31.1 µM (active)
same,AC50,[7],6.37 µM (active)
same,EC50,Streptococcus,34.3 µM (active)
same,EC50,[8],19.7 µM (active)
same,CC50,[9],12 µM (active)
[O-][n+]1c2c([n+]([O-])c3cc(F)c(F)cc31)CCCC2,AC50,Cytochrome P450 2C19; read-out: AC50,1 µM (inconclusive)
Cc1cc(NC(=O)Cn2nc(C)c([N+](=O)[O-])c2C)no1,EC50,[5],> 112 µM (not active)
same,EC50,[6],> 112 µM (not active)
C=C(CC1([C@@H](NP(=O)(c2ccccc2)c2ccccc2)[C@H]2C[C@@H]2CCCC)CC1)c1ccccc1,EC50,Streptokinase A,> 150 µM (not active)
same,AC50,[7],3.22 µM (active)
same,EC50,Streptococcus,4.4 µM (active)
same,AC50,Cytochrome P450 2C19; read-out: AC50,7.94 µM (inconclusive)
same,EC50,[8],2.27 µM (active)
CCN=C(S)NNC(=O)c1cc(-c2cccc(OC)c2)nc2ccccc12,EC50,[5],7.86 µM (active)
same,EC50,[6],0.259 µM (active)
COCCn1c(=O)c(-c2cc(F)cc(F)c2)nc2cncnc21,AC50,Cytochrome P450 3A4,15.8 µM (inconclusive)
c1ccc2[nH]c(-c3nc4ccccc4[nH]3)nc2c1,EC50,[5],3.25 µM (active)
same,EC50,[6],2.11 µM (active)
CC1CC(OC(=O)CN2CCCCC2)CC(C)(C)C1 (configuration not stated),EC50,[5],> 112 µM (not active)
same,EC50,[6],> 112 µM (not active)
O=C(c1ccco1)N1CCC2(CCCN(c3ccccc3)C2)CC1,AC50,Cytochrome P450 3A4,15.8 µM (inconclusive)
O=C(N/N=C\c1ccc(CNS(=O)(=O)c2ccc(Cl)cc2)o1)C(=O)Nc1ccc(Oc2ccccc2)cc1,EC50,[1],11.1 µM (active)
same,EC50,[4],9.47 µM (active)
COCC(=O)N/N=C/c1ccc(Sc2nc3ccccc3s2)o1,AC50,Cytochrome P450 3A4,22.4 µM (inconclusive)
Cc1cc(/C=C(/C#N)c2nc3ccccc3[nH]2)c(C)n1-c1cccc([N+](=O)[O-])c1,CC50,[9],22.6 µM (active)
COc1ccc(CNCc2cc3c(C(C)(C)C)nn(-c4ccccc4)c3nc2O)cc1,EC50,[1],14.2 µM (active)
same,EC50,[4],10.3 µM (active)
CC(C)(C)NC(=O)C(c1ccccn1)N(C(=O)C1CSC(=O)C1)c1ccc(F)cc1 (configuration not stated),AC50,Cytochrome P450 3A4,0.794 µM (inconclusive)
COc1ccc(Cl)cc1NC(=O)c1cc(S(=O)(=O)N2CCCC2)cn1C,EC50,[5],> 112 µM (not active)
same,EC50,[6],> 112 µM (not active)
COc1ccc2[nH]cc(C=O)c2c1,AC50,Cytochrome P450 2C19; read-out: AC50,28.2 µM (inconclusive)
